Data from paper PMC8795197, “Safety and activity of WX-0593 (Iruplinalkib) in patients with ALK- or ROS1-rearranged advanced non-small cell lung cancer: a phase 1 dose-escalation and dose-expansion trial” (Signal Transduction and Targeted Therapy, 2022).
Like-named read-outs stand apart in the source and are kept apart here.

Columns and labels:
LU-01-0319R NSCLC PDX = experiment: PDX model resistant to crizotinib; format: in vivo; details: WX-0593 2.5, 5, 10 mg/kg; ceritinib 10/20 mg/kg; brigatinib 10 mg/kg
[1] = system: Ba/F3 SLC34A2-ROS1-G2032R; experiment: Growth of transfected Ba/F3 cells (CellTiter-Glo, 3 days); format: cell-based; details: Mus musculus, BaF3
Protocol: (§1) Harvest cells during the logarithmic growth period and count cells using blood counting chamber. Adjust cell concentration with culture medium. Add 90µl cell suspensions to two 96-well plates to the final cell density as described before. Incubate the plate overnight in humidified incubator at 37℃ with 5% CO2. Dispense 10µl drug solution (10×) to each well (triplicate for each concentration), and the DMSO final concentration in culture medium is 0.1% [v/v]. Culture the plates for 3 days.On Day 3, Read luminescent using Multi Label Reader. The software of GraphPad Prism was used to calculate IC50. The graphical curves were fitted using a nonlinear regression model with a sigmoidal dose response.

Ba/F3 CD74-ROS1-D2033N = experiment: as above; format: cell-based; details: Mus musculus, BaF3
Protocol: as §1

[2] = system: Ba/F3 SLC34A2-ROS1-L2026M; experiment: as above; format: cell-based; details: Mus musculus, BaF3
Protocol: as §1

Ba/F3 SLC34A2-ROS1 = experiment: as above; format: cell-based; details: Mus musculus, BaF3
Protocol: as §1

Ba/F3 CD74-ROS1-L1951R = experiment: as above; format: cell-based; details: Mus musculus, BaF3
Protocol: as §1

Ba/F3 CD74-ROS1-S1986Y = experiment: as above; format: cell-based; details: Mus musculus, BaF3
Protocol: as §1

Ba/F3 CD74-ROS1-S1986F = experiment: as above; format: cell-based; details: Mus musculus, BaF3
Protocol: as §1

[3] = system: patients treated with ALK TKIs; details: cited from earlier work
[4] = system: NSCLC patients with ALK or ROS1 rearrangement; details: ALK-rearranged patients; cited from earlier work
Ba/F3 ALK-G1202del = experiment: Growth of transfected Ba/F3 cells (CellTiter-Glo, 3 days); format: cell-based; details: Mus musculus, BaF3
Protocol: as §1, with “days. On” for “days.On”

Ba/F3 ALK-WT = experiment: as above; format: cell-based; details: Mus musculus, BaF3
Protocol: as §1, with “days. On” for “days.On”

Ba/F3 ALK-C1156Y = experiment: as above; format: cell-based; details: Mus musculus, BaF3
Protocol: as §1, with “days. On” for “days.On”

Ba/F3 ALK-F1174V = experiment: as above; format: cell-based; details: Mus musculus, BaF3; ALK-F1174V; read-out: IC50
Protocol: as §1, with “days. On” for “days.On”

Ba/F3 ALK-G1202R = experiment: as above; format: cell-based; details: Mus musculus, BaF3
Protocol: as §1, with “days. On” for “days.On”

Ba/F3 ALK-L1152R = experiment: as above; format: cell-based; details: Mus musculus, BaF3
Protocol: as §1, with “days. On” for “days.On”

Ba/F3 ALK-L1196M = experiment: as above; format: cell-based; details: Mus musculus, BaF3
Protocol: as §1, with “days. On” for “days.On”

Ba/F3 ALK-I1171S = experiment: as above; format: cell-based; details: Mus musculus, BaF3, ALK-I1171S
Protocol: as §1, with “days. On” for “days.On”

Ba/F3 ALK-F1174C = experiment: as above; format: cell-based; details: Mus musculus, BaF3, ALK-F1174C
Protocol: as §1, with “days. On” for “days.On”

Ba/F3 ALK-L1152P = experiment: as above; format: cell-based; details: Mus musculus, BaF3
Protocol: as §1, with “days. On” for “days.On”

Ba/F3 ALK-V1180L = experiment: as above; format: cell-based; details: Mus musculus, BaF3
Protocol: as §1, with “days. On” for “days.On”

Ba/F3 ALK-I1171N = experiment: as above; format: cell-based; details: Mus musculus, BaF3
Protocol: as §1, with “days. On” for “days.On”

Ba/F3 ALK-T1151Tins = experiment: as above; format: cell-based; details: Mus musculus, BaF3
Protocol: as §1, with “days. On” for “days.On”

Ba/F3 ALK-F1174L = experiment: as above; format: cell-based; details: Mus musculus, BaF3
Protocol: as §1, with “days. On” for “days.On”

Ba/F3 ALK-I1171T = experiment: as above; format: cell-based; details: Mus musculus, BaF3
Protocol: as §1, with “days. On” for “days.On”

Ba/F3 ALK-G1269A = experiment: as above; format: cell-based; details: Mus musculus, BaF3
Protocol: as §1, with “days. On” for “days.On”

Ba/F3 (EML4-ALK-L1196M) = experiment: Cell proliferation inhibition assay; format: cell-based
[5] = system: 27 non-target kinases (MAP4K4 ... INSR, EGFR wild type); experiment: Inhibitory study of 27 non-target kinases; format: biochemical; details: except for EGFR wild type
Ba/F3 (EML4-ALK-C1156Y) = experiment: Cell proliferation inhibition assay; format: cell-based
Karpas299 (NPM-ALK) = experiment: Cell proliferation inhibition assay; format: cell-based
[6] = system: NCI-H1975 (EGFR mutant L858R/T790M); experiment: Cell proliferation inhibition assay; format: cell-based
Ba/F3 (EML4-ALK-WT) = experiment: Cell proliferation inhibition assay; format: cell-based
[7] = Grades 1 and 2 adverse reactions
[8] = serious adverse events in more than 2 patients

C[C@@H](Oc1cc(-c2cnn(C3CCNCC3)c2)cnc1N)c1c(Cl)ccc(F)c1Cl [Crizotinib]
anti-tumor effect (LU-01-0319R NSCLC PDX): resistant
IC50 [2]: 0.162 µM
IC50 (Ba/F3 SLC34A2-ROS1): 0.008 µM

Cc1cc(Nc2ncc(Cl)c(Nc3ccccc3S(=O)(=O)C(C)C)n2)c(OC(C)C)cc1C1CCNCC1 [Ceritinib]
anti-tumor effect (LU-01-0319R NSCLC PDX): significant effects against crizotinib-induced resistance
IC50 [1]: 1.1 µM
IC50 (Ba/F3 CD74-ROS1-S1986Y): 0.0325 µM
IC50 (Ba/F3 CD74-ROS1-D2033N): 0.159 µM
IC50 [2]: 0.054 µM
IC50 (Ba/F3 SLC34A2-ROS1): 0.014 µM
IC50 (Ba/F3 CD74-ROS1-L1951R): 0.642 µM
IC50 (Ba/F3 CD74-ROS1-S1986F): 0.0496 µM
ALT increased [3, 7]: 35%
diarrhea [3, 7]: 75%
fatigue [3, 7]: 47%
nausea [3, 7]: 82%
vomiting [3, 7]: 65%
diarrhea, % of patients [3]: 75%
dose reduction due to TEAEs, % of patients [3]: 62%
ORR [4]: 58%
IC50 (Ba/F3 ALK-G1202del; ALK-G1202del, read-out: IC50): 0.925 µM
IC50 (Ba/F3 ALK-WT; ALK-WT, read-out: IC50): 0.013 µM
IC50 (Ba/F3 ALK-C1156Y; ALK-C1156Y, read-out: IC50): 0.087 µM
IC50 (Ba/F3 ALK-F1174V): 0.0537 µM
IC50 (Ba/F3 ALK-G1202R; ALK-G1202R, read-out: IC50): 0.502 µM
IC50 (Ba/F3 ALK-L1152R; ALK-L1152R, read-out: IC50): 0.116 µM
IC50 (Ba/F3 ALK-L1196M; ALK-L1196M, read-out: IC50): 0.033 µM
IC50 (Ba/F3 ALK-I1171S; first listing (r12), read-out: IC50): 0.097 µM
IC50 (Ba/F3 ALK-I1171S; second listing (r19), read-out: IC50): 0.0458 µM
IC50 (Ba/F3 ALK-F1174C; first listing (r10), read-out: IC50): 0.095 µM
IC50 (Ba/F3 ALK-F1174C; second listing (r15), read-out: IC50): 0.0795 µM
IC50 (Ba/F3 ALK-L1152P; ALK-L1152P, read-out: IC50): 0.0715 µM
IC50 (Ba/F3 ALK-V1180L; ALK-V1180L, read-out: IC50): 0.0156 µM
IC50 (Ba/F3 ALK-I1171N; ALK-I1171N, read-out: IC50): 0.0418 µM
IC50 (Ba/F3 ALK-T1151Tins; ALK-T1151Tins, read-out: IC50): 0.096 µM
IC50 (Ba/F3 ALK-F1174L; ALK-F1174L, read-out: IC50): 0.021 µM
IC50 (Ba/F3 ALK-I1171T; ALK-I1171T, read-out: IC50): 0.0278 µM
IC50 (Ba/F3 ALK-G1269A; ALK-G1269A, read-out: IC50): 0.016 µM

COc1cc(N2CCC(N3CCN(C)CC3)CC2)ccc1Nc1ncc(Cl)c(Nc2ccccc2P(C)(C)=O)n1 [Brigatinib]
growth inhibition (Ba/F3 (EML4-ALK-L1196M)): significantly inhibits the growth
inhibitory activity against non-target kinases [5]: no significant inhibitory activity
growth inhibition (Ba/F3 (EML4-ALK-C1156Y)): significantly inhibits the growth
growth inhibition (Karpas299 (NPM-ALK)): significantly inhibits the growth
anti-tumor effect (LU-01-0319R NSCLC PDX): significant effects against crizotinib-induced resistance
IC50 [1]: 0.846 µM
IC50 (Ba/F3 CD74-ROS1-S1986Y): 0.0125 µM
IC50 (Ba/F3 CD74-ROS1-D2033N): 0.0365 µM
IC50 [2]: 0.048 µM
IC50 (Ba/F3 SLC34A2-ROS1): 0.022 µM
IC50 (Ba/F3 CD74-ROS1-L1951R): 0.775 µM
IC50 (Ba/F3 CD74-ROS1-S1986F): 0.0202 µM
coughing [3, 7]: 26%
diarrhea [3, 7]: 36%
fatigue [3, 7]: 36%
headache [3, 7]: 26%
nausea [3, 7]: 45%
diarrhea, % of patients [3]: 41%
dose reduction due to TEAEs, % of patients [3]: 14%
DLTs in the tolerability study ([3]; one Grade 3 ALT increased, one Grade 4 dyspnea and Grade 3 hypoxia): Two
coughing [3, 8]: 4%
dyspnea [3, 8]: 4%
hypoxia [3, 8]: 4%
pleural effusion [3, 8]: 4%
pneumonia [3, 8]: 7%
IC50 (Ba/F3 ALK-G1202del): 1 µM
IC50 (Ba/F3 ALK-WT): 0.025 µM
IC50 (Ba/F3 ALK-C1156Y): 0.039 µM
IC50 (Ba/F3 ALK-G1202R): 0.34 µM
IC50 (Ba/F3 ALK-L1152R): 0.0104 µM
IC50 (Ba/F3 ALK-L1196M): 0.031 µM
IC50 (Ba/F3 ALK-I1171S; first listing (r12)): 0.093 µM
IC50 (Ba/F3 ALK-I1171S; second listing (r19)): 0.04 µM
IC50 (Ba/F3 ALK-F1174C; first listing (r10)): 0.097 µM
IC50 (Ba/F3 ALK-F1174C; second listing (r15)): 0.0516 µM
IC50 (Ba/F3 ALK-L1152P): 0.0015 µM
IC50 (Ba/F3 ALK-V1180L): 0.0104 µM
IC50 (Ba/F3 ALK-I1171N): 0.035 µM
IC50 (Ba/F3 ALK-T1151Tins): 0.035 µM
IC50 (Ba/F3 ALK-F1174L): 0.031 µM
IC50 (Ba/F3 ALK-I1171T): 0.0189 µM
IC50 (Ba/F3 ALK-G1269A): 0.031 µM
growth inhibition [6]: somewhat inhibits the growth
growth inhibition (Ba/F3 (EML4-ALK-WT)): significantly inhibits the growth
